Results: PMC11939276, “Identifying Baicalein as a Key Bioactive Compound in XueBiJing Targeting KEAP1: Implications for Antioxidant Effects” (Antioxidants, 2025)

Biological target: T1, KEAP1 (Homo sapiens, UniProt Q14145)
T1 construct: recombinant KEAP1 protein (Sino Biological No. 11981-HNCB)
Experiment: SPR (Biacore X100, immobilized recombinant KEAP1); supported by CETSA-WB in MCF-7 lysate
Type: binding

T1 sequence (Q14145 whole entry): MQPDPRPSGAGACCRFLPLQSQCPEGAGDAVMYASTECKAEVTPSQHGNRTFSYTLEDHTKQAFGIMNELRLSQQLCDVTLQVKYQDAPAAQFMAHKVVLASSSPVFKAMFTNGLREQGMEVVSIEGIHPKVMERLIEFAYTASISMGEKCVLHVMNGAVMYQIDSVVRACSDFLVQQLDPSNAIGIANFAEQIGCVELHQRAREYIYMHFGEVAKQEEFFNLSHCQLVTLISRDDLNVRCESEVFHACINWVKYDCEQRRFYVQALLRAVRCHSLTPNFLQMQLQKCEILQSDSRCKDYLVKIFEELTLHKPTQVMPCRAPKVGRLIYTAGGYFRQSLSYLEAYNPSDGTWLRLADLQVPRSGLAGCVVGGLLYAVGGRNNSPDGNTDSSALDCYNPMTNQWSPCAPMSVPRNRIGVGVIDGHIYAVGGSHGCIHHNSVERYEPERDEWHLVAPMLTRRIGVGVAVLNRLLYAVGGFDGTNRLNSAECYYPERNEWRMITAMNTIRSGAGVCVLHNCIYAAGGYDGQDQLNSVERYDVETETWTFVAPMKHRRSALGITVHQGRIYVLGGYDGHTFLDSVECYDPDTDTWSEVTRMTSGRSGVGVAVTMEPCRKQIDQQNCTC

## O=c1cc(-c2ccccc2)oc2cc(O)c(O)c(O)c12 [Baicalein]
  Kd: 158 µM
